Assay results from patent US10760110B2, “Antibiotic testing and screening system” (priority 2017, dated 2020).
In brackets after ≈: the same amount, converted by molar mass. Where two headings read alike, the source gives them in different places.

Legend:
Conditions in all cases: Klebsiella pneumoniae
[1] = tested on: K. pneumoniae NVT1001 strains with carbapenemase plasmids; test: Etest MIC of β-lactams, OmpK35/36 loss, ΔramR and/or carbapenemase (Table 9); assay type: cell-based, Klebsiella pneumoniae
Procedure, shortened: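 Etest MICs, with values between standard dilutions rounded up to the next two-fold step, were measured in K. pneumoniae NVT1001 carrying PCR-cloned resistance genes on pACYC177 or pACYC184 plasmids. Interpretation used CLSI 2017 breakpoints, CLSI 2015 for cephalothin and EUCAST 2017 for moxifloxacin. For the blaOXA-48 strain, ceftazidime and cefotaxime were additionally tested by CLSI broth microdilution.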

[2] = tested on: K. pneumoniae NVT1001 and its ΔompK35/36 and/or ΔramR mutants; test: Etest MIC, OmpK35/36 loss and AcrAB-TolC overexpression (ΔramR) strains (Table 6); assay type: cell-based, Klebsiella pneumoniae
Procedure, shortened: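 Ceftazidime and cefotaxime were tested by CLSI broth microdilution on the blaOXA-48 pACYC177 transformant of NVT1001, using CLSI 2017 breakpoints. Parent, porin-deleted (ΔompK35/36) and ΔramR strains were tested by Etest, with values between two-fold dilutions rounded up.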

[3] = tested on: K. pneumoniae NVT1001 ΔramRΔompK35/36 mutant and its revertants; test: Etest MIC, ΔramRΔompK35/36 mutant and its revertants (Table 7); assay type: cell-based

`C[C@@H](O)[C@H]1C(=O)N2C(C(=O)O)=C(S[C@@H]3CN[C@H](CNS(N)(=O)=O)C3)[C@H](C)[C@H]12` [Doripenem] was tested. Which MIC ([1]; IMP-8 on pACYC177, WT (NVT1001), read-out: MIC) did it give?
Its MIC is 1 µg/mL.

And the MIC ([1]; IMP-8 on pACYC177, Δ35 (ΔompK35 mutant))?
The MIC was 2 µg/mL.

What about the MIC ([1]; IMP-8 on pACYC177, Δ35/36 (ΔompK35/36 mutant)) of the same compound?
The MIC was > 32 µg/mL.

And the MIC ([1]; IMP-8 on pACYC177, Δ36 (ΔompK36 mutant))?
Its MIC is 2 µg/mL.

And the MIC ([1]; IMP-8 on pACYC177, ΔramR mutant)?
The MIC was 1 µg/mL.

What about the MIC ([1]; IMP-8 on pACYC177, ΔramRΔ35 (ΔramRΔompK35 mutant)) of the same compound?
The MIC was 2 µg/mL.

And the MIC ([1]; IMP-8 on pACYC177, ΔramRΔ35/36 (ΔramRΔompK35/36 mutant))?
The MIC was 32 µg/mL.

What about the MIC ([1]; IMP-8 on pACYC177, ΔramRΔ36 (ΔramRΔompK36 mutant)) of the same compound?
The MIC was 32 µg/mL.

What about the MIC ([1]; KPC-2 on pACYC177, WT (NVT1001), read-out: MIC) of the same compound?
Its MIC is 16 µg/mL.

What about the MIC ([1]; KPC-2 on pACYC177, Δ35 (ΔompK35 mutant)) of the same compound?
Its MIC is 32 µg/mL.

And the MIC ([1]; KPC-2 on pACYC177, Δ35/36 (ΔompK35/36 mutant))?
Its MIC is > 32 µg/mL.

And the MIC ([1]; KPC-2 on pACYC177, Δ36 (ΔompK36 mutant))?
The MIC was > 32 µg/mL.

And the MIC ([1]; KPC-2 on pACYC177, ΔramR mutant)?
The MIC was 16 µg/mL.

And the MIC ([1]; KPC-2 on pACYC177, ΔramRΔ35 (ΔramRΔompK35 mutant))?
Its MIC is 32 µg/mL.

And the MIC ([1]; KPC-2 on pACYC177, ΔramRΔ35/36 (ΔramRΔompK35/36 mutant))?
Its MIC is > 32 µg/mL.

And the MIC ([1]; KPC-2 on pACYC177, ΔramRΔ36 (ΔramRΔompK36 mutant))?
Its MIC is > 32 µg/mL.

What about the MIC ([1]; KPC-3 on pACYC177, WT (NVT1001), read-out: MIC) of the same compound?
Its MIC is 8 µg/mL.

What about the MIC ([1]; KPC-3 on pACYC177, Δ35 (ΔompK35 mutant)) of the same compound?
The MIC was 32 µg/mL.

And the MIC ([1]; KPC-3 on pACYC177, Δ35/36 (ΔompK35/36 mutant))?
The MIC was > 32 µg/mL.

What about the MIC ([1]; KPC-3 on pACYC177, Δ36 (ΔompK36 mutant)) of the same compound?
The MIC was > 32 µg/mL.

What about the MIC ([1]; KPC-3 on pACYC177, ΔramR mutant) of the same compound?
The MIC was 16 µg/mL.

What about the MIC ([1]; KPC-3 on pACYC177, ΔramRΔ35 (ΔramRΔompK35 mutant)) of the same compound?
Its MIC is 32 µg/mL.

And the MIC ([1]; KPC-3 on pACYC177, ΔramRΔ35/36 (ΔramRΔompK35/36 mutant))?
The MIC was > 32 µg/mL.

And the MIC ([1]; KPC-3 on pACYC177, ΔramRΔ36 (ΔramRΔompK36 mutant))?
Its MIC is > 32 µg/mL.

What about the MIC ([1]; NDM-1 on pACYC177, WT (NVT1001), read-out: MIC) of the same compound?
The MIC was 16 µg/mL.

And the MIC ([1]; NDM-1 on pACYC177, Δ35 (ΔompK35 mutant))?
Its MIC is 32 µg/mL.

What about the MIC ([1]; NDM-1 on pACYC177, Δ35/36 (ΔompK35/36 mutant)) of the same compound?
The MIC was > 32 µg/mL.

And the MIC ([1]; NDM-1 on pACYC177, Δ36 (ΔompK36 mutant))?
The MIC was > 32 µg/mL.

And the MIC ([1]; NDM-1 on pACYC177, ΔramR mutant)?
The MIC was 32 µg/mL.

And the MIC ([1]; NDM-1 on pACYC177, ΔramRΔ35 (ΔramRΔompK35 mutant))?
Its MIC is 32 µg/mL.

And the MIC ([1]; NDM-1 on pACYC177, ΔramRΔ35/36 (ΔramRΔompK35/36 mutant))?
The MIC was > 32 µg/mL.

And the MIC ([1]; NDM-1 on pACYC177, ΔramRΔ36 (ΔramRΔompK36 mutant))?
Its MIC is > 32 µg/mL.

What about the MIC ([1]; OXA-48 on pACYC177, WT (NVT1001), read-out: MIC) of the same compound?
The MIC was 2 µg/mL.

What about the MIC ([1]; OXA-48 on pACYC177, Δ35 (ΔompK35 mutant)) of the same compound?
The MIC was 2 µg/mL.

What about the MIC ([1]; OXA-48 on pACYC177, Δ35/36 (ΔompK35/36 mutant)) of the same compound?
The MIC was > 32 µg/mL.

What about the MIC ([1]; OXA-48 on pACYC177, Δ36 (ΔompK36 mutant)) of the same compound?
Its MIC is 8 µg/mL.

What about the MIC ([1]; OXA-48 on pACYC177, ΔramR mutant) of the same compound?
The MIC was 2 µg/mL.

And the MIC ([1]; OXA-48 on pACYC177, ΔramRΔ35 (ΔramRΔompK35 mutant))?
The MIC was 1 µg/mL.

And the MIC ([1]; OXA-48 on pACYC177, ΔramRΔ35/36 (ΔramRΔompK35/36 mutant))?
Its MIC is > 32 µg/mL.

And the MIC ([1]; OXA-48 on pACYC177, ΔramRΔ36 (ΔramRΔompK36 mutant))?
Its MIC is > 32 µg/mL.

What about the MIC ([1]; VIM-1 on pACYC177, WT (NVT1001), read-out: MIC) of the same compound?
Its MIC is 16 µg/mL.

And the MIC ([1]; VIM-1 on pACYC177, Δ35 (ΔompK35 mutant))?
Its MIC is 32 µg/mL.

What about the MIC ([1]; VIM-1 on pACYC177, Δ35/36 (ΔompK35/36 mutant)) of the same compound?
The MIC was > 32 µg/mL.

And the MIC ([1]; VIM-1 on pACYC177, Δ36 (ΔompK36 mutant))?
Its MIC is > 32 µg/mL.

And the MIC ([1]; VIM-1 on pACYC177, ΔramR mutant)?
Its MIC is 32 µg/mL.

What about the MIC ([1]; VIM-1 on pACYC177, ΔramRΔ35 (ΔramRΔompK35 mutant)) of the same compound?
Its MIC is 32 µg/mL.

What about the MIC ([1]; VIM-1 on pACYC177, ΔramRΔ35/36 (ΔramRΔompK35/36 mutant)) of the same compound?
The MIC was > 32 µg/mL.

What about the MIC ([1]; VIM-1 on pACYC177, ΔramRΔ36 (ΔramRΔompK36 mutant)) of the same compound?
The MIC was > 32 µg/mL.

And the MIC ([1]; no supplemental plasmid, WT (NVT1001), read-out: MIC)?
The MIC was 0.06 µg/mL.

What about the MIC ([1]; no supplemental plasmid, Δ35 (ΔompK35 mutant)) of the same compound?
Its MIC is 0.06 µg/mL.

And the MIC ([1]; no supplemental plasmid, Δ35/36 (ΔompK35/36 mutant))?
Its MIC is 0.125 µg/mL.

What about the MIC ([1]; no supplemental plasmid, Δ36 (ΔompK36 mutant)) of the same compound?
Its MIC is 0.06 µg/mL.

What about the MIC ([1]; no supplemental plasmid, ΔramR mutant) of the same compound?
The MIC was 0.03 µg/mL.

And the MIC ([1]; no supplemental plasmid, ΔramRΔ35 (ΔramRΔompK35 mutant))?
The MIC was 0.03 µg/mL.

And the MIC ([1]; no supplemental plasmid, ΔramRΔ35/36 (ΔramRΔompK35/36 mutant))?
Its MIC is 0.5 µg/mL.

And the MIC ([1]; no supplemental plasmid, ΔramRΔ36 (ΔramRΔompK36 mutant))?
The MIC was 0.25 µg/mL.

What about the MIC ([2]; WT, NVT1001, read-out: MIC) of the same compound?
Its MIC is 0.06 µg/mL (≈ 0.143 µM).

What about the MIC ([2]; Δ35, ΔompK35 mutant) of the same compound?
The MIC was 0.06 µg/mL (≈ 0.143 µM).

What about the MIC ([2]; Δ35/36, ΔompK35/36 mutant) of the same compound?
Its MIC is 0.125 µg/mL (≈ 0.297 µM).

What about the MIC ([2]; Δ36, ΔompK36 mutant) of the same compound?
Its MIC is 0.06 µg/mL (≈ 0.143 µM).

What about the MIC ([2]; ΔramR mutant) of the same compound?
The MIC was 0.03 µg/mL (≈ 0.0713 µM).

And the MIC ([2]; ΔramRΔ35, ΔramRΔompK35 mutant)?
Its MIC is 0.03 µg/mL (≈ 0.0713 µM).

And the MIC ([2]; ΔramRΔ35/36, ΔramRΔompK35/36 mutant)?
The MIC was 0.5 µg/mL (≈ 1.19 µM).

And the MIC ([2]; ΔramRΔ36, ΔramRΔompK36 mutant)?
Its MIC is 0.25 µg/mL (≈ 0.595 µM).

What about the MIC ([3]; ΔramRΔompK35/36::ompK35/36 revertant) of the same compound?
Its MIC is 0.06 µg/mL.

What about the MIC ([3]; ΔramRΔompK35/36::ompK35 revertant) of the same compound?
The MIC was 0.25 µg/mL.

What about the MIC ([3]; ΔramRΔompK35/36::ompK36 revertant) of the same compound?
The MIC was 0.06 µg/mL.

And the MIC ([3]; ΔramRΔompK35/36::ramR revertant)?
The MIC was 0.25 µg/mL.

And the MIC ([3]; ΔramRΔompK35/36::ramR::ompK35/36 revertant)?
The MIC was 0.06 µg/mL.

And the MIC ([3]; ΔramRΔompK35/36::ramR::ompK35 revertant)?
The MIC was 0.125 µg/mL.

What about the MIC ([3]; ΔramRΔompK35/36::ramR::ompK36 revertant) of the same compound?
Its MIC is 0.125 µg/mL.

And the MIC ([3]; ΔramRΔompK35/36 mutant)?
The MIC was 0.5 µg/mL.
